Data taken from patent US20080063628A1, “METHODS TO PROMOTE CELL DIFFERENTIATION” (priority 2006, published 2008).

Tests used:
Assay in all cases: Single trichostatin A dose, 144 h follow-up, gene expression by RT-PCR (Example 6)
Assay type in all cases: cell-based, human
[1] = test system: amniotic fluid-derived cell line; settings: 500 nM once at 0 h
Description: (§1) Several cell lines obtained from different amniotic fluid specimens (see Example 14) and pancreas donors (see Example 13) were tested with similar results. Two lines at similar passage number but derived from different amniotic fluid specimens are shown in Table VI-A and Table VI-B for this example. One of these cell lines was also used in examples 2 and 4 above. In addition, this example also contains comparison data in Table VI-C and Table VI-D for a single pancreatic-derived stromal line grown to early and late passage number.
(§2) Amniotic fluid derived cells or pancreatic-derived stromal cells were seeded into 24-well tissue culture plates at a density of 5000/cm^2 and cultured in AMNIOMAX (Invitrogen) or DMEM with 10% FBS, respectively, under standard cell culture conditions until confluent. After the cells reached confluency, amniotic fluid derived cells were treated once at time 0 hours with 500 nM trichostatin A. Pancreas-derived stromal cells were treated once at time 0 hours with 1.25 μM trichostatin A. Samples for RT-PCR were taken daily from zero to six days at the times indicated in Table VI.
(§3) RNA samples were obtained from the treated cultures up to 144 hours after the initial addition of trichostatin A or DMSO. Culture media was removed, the cells were washed with PBS, and RLT lysis buffer containing β-mercaptoethanol (Qiagen) was added. During culture, the medium was not changed nor was freshly prepared trichostatin A added. RNA was purified using the RNeasy Mini Kit (Qiagen), and RNA quantity and quality was determined using a spectrophotometer. cDNA was made using the iScript cDNA synthesis kit (BioRad).
(§4) Samples of 20 ng cDNA were used in each reaction to determine the expression levels of the following genes in amniotic fluid-derived cells: Gata1, HNF-3 beta, Pdx-1, insulin, and Sox17. Similarly, samples of 20 ng cDNA were used in each reaction to determine the expression level of the following genes in pancreatic-derived stromal cells: glucagon, HNF-3 beta, insulin and Pdx-1. Real-Time PCR was performed on the Applied Biosystems 7500, and data was analyzed using the accompanying software according to the methods described in Example 15.
(§5) Real-time PCR amplifcation and quantitative analysis. Unless otherwise stated, all reagents were purchased from Applied Biosystems. Real-time PCR reactions were performed using the ABI PRISM™ 7500 Sequence Detection System. TAQMAN™ FAST UNIVERSAL PCR MASTER MIX™ (ABI, CA) was used with 20 ng of reverse transcribed RNA in a total reaction volume of 20 μl. Each cDNA sample was run in duplicate to allow correction of pipetting errors. Primers and FAM-labeled TAQMAN™ probes were used at concentrations of 200 nM. The level of expression for each target gene was normalized using the pre-developed Applied Biosystem's human glyceraldehyde-3-phosphate dehydrogenase (GAPDH) endogenous control kit. Primers and probes were designed using either ABI PRISM PRIMER EXPRESS™ software or a pre-developed ABI gene analysis kit. For each gene, either one of the primers or the probe were designed to be exon-boundary spanning. This eliminated the possibility of the primers/probe binding to any genomic DNA present. The primer and probe sets are listed as follows: Pdx-1 (Hs00426216), Insulin (Hs00355773), glucagon (Hs00174967), and FoxA2 (HNF 3-beta) (Hs00232764). The remaining primers were designed using the PRIMERS program (ABI, CA). After an initial 95° C. incubation for 20 sec, samples were cycled 40 times in two stages: a denaturation step at 95° C. for 3 sec, followed by an annealing/extension step at 60° C. for 30 sec.
(§6) For each primer/probe set, a cycle time value was determined as the cycle number at which the fluorescence intensity of the PCR reaction reached a specific value in the middle of the exponential region of amplification. An increase in expression of a gene corresponded to a decrease in the number of cycles required for the fluorescence intensity to reach this value.

[2] = test system: second amniotic fluid-derived cell line; settings: 500 nM once at 0 h
Description: as §1, §2, §3, §4, §5, §6

[3] = test system: late passage (P14) pancreatic-derived stromal cell line; settings: 1.25 μM once at 0 h
Description: as §1, §2, §3, §4, §5, §6

## CC(/C=C/C(=O)NO)=C\[C@@H](C)C(=O)c1ccc(N(C)C)cc1 [trichostatin A]
[1]; 24 hrs
  Gata1 gene expression: nd (not detectable at >40 cycles by RT-PCR)
  HNF (HNF-3 beta) gene expression: +++ (detectable at less than 35 cycles by RT-PCR with SE less than 0.9)
  Insulin gene expression: nd (not detectable at >40 cycles by RT-PCR)
  Pdx-1 gene expression: + (detectable between 35 cycles and 40 cycles by RT-PCR)
  sox17 gene expression: +++ (detectable at less than 35 cycles by RT-PCR with SE less than 0.9)
[1]; 48 hrs
  Gata1 gene expression: nd (not detectable at >40 cycles by RT-PCR)
  HNF (HNF-3 beta) gene expression: +++ (detectable at less than 35 cycles by RT-PCR with SE less than 0.9)
  Insulin gene expression: nd (not detectable at >40 cycles by RT-PCR)
  Pdx-1 gene expression: nd (not detectable at >40 cycles by RT-PCR)
  sox17 gene expression: +++ (detectable at less than 35 cycles by RT-PCR with SE less than 0.9)
[1]; 72 hrs
  Gata1 gene expression: nd (not detectable at >40 cycles by RT-PCR)
  HNF (HNF-3 beta) gene expression: + (detectable between 35 cycles and 40 cycles by RT-PCR)
  Insulin gene expression: + (detectable between 35 cycles and 40 cycles by RT-PCR)
  Pdx-1 gene expression: nd (not detectable at >40 cycles by RT-PCR)
  sox17 gene expression: +++ (detectable at less than 35 cycles by RT-PCR with SE less than 0.9)
[1]; 96 hrs
  Gata1 gene expression: nd (not detectable at >40 cycles by RT-PCR)
  HNF (HNF-3 beta) gene expression: nd (not detectable at >40 cycles by RT-PCR)
  Insulin gene expression: + (detectable between 35 cycles and 40 cycles by RT-PCR)
  Pdx-1 gene expression: nd (not detectable at >40 cycles by RT-PCR)
  sox17 gene expression: +++ (detectable at less than 35 cycles by RT-PCR with SE less than 0.9)
[1]; 120 hrs
  Gata1 gene expression: nd (not detectable at >40 cycles by RT-PCR)
  HNF (HNF-3 beta) gene expression: + (detectable between 35 cycles and 40 cycles by RT-PCR)
  Insulin gene expression: + (detectable between 35 cycles and 40 cycles by RT-PCR)
  Pdx-1 gene expression: nd (not detectable at >40 cycles by RT-PCR)
  sox17 gene expression: +++ (detectable at less than 35 cycles by RT-PCR with SE less than 0.9)
[1]; 144 hrs
  Gata1 gene expression: nd (not detectable at >40 cycles by RT-PCR)
  HNF (HNF-3 beta) gene expression: nd (not detectable at >40 cycles by RT-PCR)
  Insulin gene expression: + (detectable between 35 cycles and 40 cycles by RT-PCR)
  Pdx-1 gene expression: nd (not detectable at >40 cycles by RT-PCR)
  sox17 gene expression: +++ (detectable at less than 35 cycles by RT-PCR with SE less than 0.9)
[2]; 24 hrs
  Gata1 gene expression: nd (not detectable at >40 cycles by RT-PCR)
  HNF (HNF-3 beta) gene expression: +++ (detectable at less than 35 cycles by RT-PCR with SE less than 0.9)
  Insulin gene expression: nd (not detectable at >40 cycles by RT-PCR)
  Pdx-1 gene expression: + (detectable between 35 and 40 cycles by RT-PCR)
  sox17 gene expression: +++ (detectable at less than 35 cycles by RT-PCR with SE less than 0.9)
[2]; 48 hrs
  Gata1 gene expression: nd (not detectable at >40 cycles by RT-PCR)
  HNF (HNF-3 beta) gene expression: +++ (detectable at less than 35 cycles by RT-PCR with SE less than 0.9)
  Insulin gene expression: nd (not detectable at >40 cycles by RT-PCR)
  Pdx-1 gene expression: nd (not detectable at >40 cycles by RT-PCR)
  sox17 gene expression: +++ (detectable at less than 35 cycles by RT-PCR with SE less than 0.9)
[2]; 72 hrs
  Gata1 gene expression: nd (not detectable at >40 cycles by RT-PCR)
  HNF (HNF-3 beta) gene expression: + (detectable between 35 and 40 cycles by RT-PCR)
  Insulin gene expression: + (detectable between 35 and 40 cycles by RT-PCR)
  Pdx-1 gene expression: nd (not detectable at >40 cycles by RT-PCR)
  sox17 gene expression: +++ (detectable at less than 35 cycles by RT-PCR with SE less than 0.9)
[2]; 96 hrs
  Gata1 gene expression: nd (not detectable at >40 cycles by RT-PCR)
  HNF (HNF-3 beta) gene expression: + (detectable between 35 and 40 cycles by RT-PCR)
  Insulin gene expression: ++ (detectable at less than 35 cycles by RT-PCR with SE greater than 0.9)
  Pdx-1 gene expression: nd (not detectable at >40 cycles by RT-PCR)
  sox17 gene expression: +++ (detectable at less than 35 cycles by RT-PCR with SE less than 0.9)
[2]; 120 hrs
  Gata1 gene expression: nd (not detectable at >40 cycles by RT-PCR)
  HNF (HNF-3 beta) gene expression: + (detectable between 35 and 40 cycles by RT-PCR)
  Insulin gene expression: ++ (detectable at less than 35 cycles by RT-PCR with SE greater than 0.9)
  Pdx-1 gene expression: nd (not detectable at >40 cycles by RT-PCR)
  sox17 gene expression: +++ (detectable at less than 35 cycles by RT-PCR with SE less than 0.9)
[2]; 144 hrs
  Gata1 gene expression: nd (not detectable at >40 cycles by RT-PCR)
  HNF (HNF-3 beta) gene expression: + (detectable between 35 and 40 cycles by RT-PCR)
  Insulin gene expression: ++ (detectable at less than 35 cycles by RT-PCR with SE greater than 0.9)
  Pdx-1 gene expression: nd (not detectable at >40 cycles by RT-PCR)
  sox17 gene expression: +++ (detectable at less than 35 cycles by RT-PCR with SE less than 0.9)
[3]; 24 hrs
  HNF (HNF-3 beta) gene expression: + (detectable between 35 and 40 cycles RT-PCR)
  Insulin gene expression: nd (not detectable at >40 cycles by RT-PCR)
  Pdx-1 gene expression: +++ (detectable at less than 35 cycles RT-PCR with SE less than 0.9)
  glucagon gene expression: +++ (detectable at less than 35 cycles RT-PCR with SE less than 0.9)
[3]; 48 hrs
  HNF (HNF-3 beta) gene expression: nd (not detectable at >40 cycles by RT-PCR)
  Insulin gene expression: nd (not detectable at >40 cycles by RT-PCR)
  Pdx-1 gene expression: nd (not detectable at >40 cycles by RT-PCR)
  glucagon gene expression: + (detectable between 35 and 40 cycles RT-PCR)
[3]; 72 hrs
  HNF (HNF-3 beta) gene expression: nd (not detectable at >40 cycles by RT-PCR)
  Insulin gene expression: nd (not detectable at >40 cycles by RT-PCR)
  Pdx-1 gene expression: nd (not detectable at >40 cycles by RT-PCR)
  glucagon gene expression: nd (not detectable at >40 cycles by RT-PCR)
[3]; 96 hrs
  HNF (HNF-3 beta) gene expression: nd (not detectable at >40 cycles by RT-PCR)
  Insulin gene expression: nd (not detectable at >40 cycles by RT-PCR)
  Pdx-1 gene expression: nd (not detectable at >40 cycles by RT-PCR)
  glucagon gene expression: nd (not detectable at >40 cycles by RT-PCR)
[3]; 120 hrs
  HNF (HNF-3 beta) gene expression: nd (not detectable at >40 cycles by RT-PCR)
  Insulin gene expression: nd (not detectable at >40 cycles by RT-PCR)
  Pdx-1 gene expression: nd (not detectable at >40 cycles by RT-PCR)
  glucagon gene expression: nd (not detectable at >40 cycles by RT-PCR)
[3]; 144 hrs
  HNF (HNF-3 beta) gene expression: nd (not detectable at >40 cycles by RT-PCR)
  Insulin gene expression: nd (not detectable at >40 cycles by RT-PCR)
  Pdx-1 gene expression: nd (not detectable at >40 cycles by RT-PCR)
  glucagon gene expression: nd (not detectable at >40 cycles by RT-PCR)
